We go through 5 molecules from publication PMC7684313, “In vitro and in vivo pharmacological activity of minor cannabinoids isolated from Cannabis sativa” (Scientific Reports, 2020).

In assay [1] the target is T1, hCB2R (Homo sapiens, UniProt P34972). The experiment in a line: Ligand bias between cAMP inhibition and βarrestin2 recruitment at hCB2R (operational model). Format: cell-based. Further details: expressed in transfected cells; membranes. To be noted: ∆∆LogR > 0 bias for inhibition of cAMP, < 0 bias for βarrestin2; CP55,940 reference agonist. How it is done:
(§1) Figure 8 Analysis of ligand bias for phytocannabinoids at hCB1R (a) and hCB2R (b).
(§2) Concentration–response curves (CRC) were fit using non-linear regression with variable slope (4 parameters) and used to calculate EC50, Emin, and Emax (GraphPad, Prism, v. 8.0). […] In vivo data are presented as % MPE for catalepsy (MPE = 60 s) and anti-nociception (MPE = 20 s), °C for body temperature, and distance travelled (m) and % time in the centre quadrant in 5 min for OFT. Post-hoc analyses were performed using Tukey’s (one-way ANOVA) test. Homogeneity of variance was confirmed using Bartlett’s test. All data were evaluated for possible outliers using Grubb’s test in GraphPad.
(Recruitment of arrestin is a read-out of receptor activation apart from second messengers.)

Assay [2] addresses T1, hCB2R. Nature of the assay: hCB2R-dependent recruitment of βarrestin2 (PathHunter CHO cells). To be noted: for Emax: CHO; for activity in hCB2R βarrestin2 recruitment, in words: 0.1 nM–10 µM, relative to CP55,940. It counts as cell-based. More on the design: expressed in transfected cells; membranes.
Assay [3] deals with CB1R. As to conditions: read-out: affinity for CB1R (previous reports); cited from earlier work.
Assay [4] addresses T1, hCB2R. The experiment in a line: [^3H]CP55,940 displacement from hCB2R CHO cell membranes. As to conditions: for hCB2R Emin: bottom of the concentration–response curve of [^3H]CP55,940 displacement, %CP55,940 response, mean ± SEM; for extent of [^3H]CP55,940 displacement from hCB2R, in words: concentration range 0.1 nM–10 µM.
The test system of assay [5] is C57BL/6 mice. The experiment in a line: Nociception in the tail flick assay (tetrad). Format: in vivo. How it is done:
(§3) Asterisk colour matches the treatment group assessed.
as §2
In general terms: Hot-plate and tail-flick tests time the reaction to a heat stimulus.

Assay [6] deals with T2, hCB1R (Homo sapiens, UniProt P21554).
T2 construct: expressed in transfected cells; membranes
Nature of the assay: cell-based. To be noted: for Emax: CHO, read-out: hCB1R Emax, recruitment of βarrestin2.

Assay [7] addresses T1, hCB2R. The experiment in a line: hCB2R-dependent inhibition of FSK-stimulated cAMP accumulation (HitHunter CHO cells). It counts as cell-based. More on the design: expressed in transfected cells; membranes. As to conditions: for agonist activity in hCB2R cAMP inhibition, in words: 0.1 nM–10 µM, relative to CP55,940; for Emax: CHO. (In general: cAMP levels reflect the balance of adenylyl cyclase and phosphodiesterase activity.)

The target in assay [8] is T2, hCB1R. Nature of the assay: Ligand bias between cAMP inhibition and βarrestin2 recruitment at hCB1R (operational model). Format: cell-based. To be noted: ∆∆LogR > 0 bias for inhibition of cAMP, < 0 bias for βarrestin2; CP55,940 reference agonist. The protocol:
as §1, §2

For assay [9], the target named is T2, hCB1R. Nature of the assay: cell-based. Format: cell-based. To be noted: for Emax: CHO, read-out: hCB1R Emax, inhibition of FSK-stimulated cAMP accumulation.
The test system of assay [10] is C57BL/6 mice. Nature of the assay: Time in the centre quadrant of the OFT (anxiety-like behaviour). Format: in vivo. As to conditions: 1 h post-injection. How it is done:
as §3, §2

Assay [11] concerns the target T2, hCB1R. The experiment in a line: biochemical. Format: binding.
Assay [12] addresses T1, hCB2R. Nature of the assay: biochemical.
For assay [13], the target named is CB2R. As to conditions: read-out: affinity for CB2R (previous reports); cited from earlier work.
In assay [14] the test system is C57BL/6 mice. The experiment in a line: Tetrad of assays, overall.
Assay [15] deals with C57BL/6 mice. Nature of the assay: Catalepsy in the ring holding assay (tetrad). Format: in vivo. As to conditions: 10 mg/kg i.p., MPE 60 s = 100%. The protocol: as §3, §2
Assay [16] concerns C57BL/6 mice. Nature of the assay: Body temperature (tetrad). Format: in vivo. As to conditions: 10 mg/kg i.p. The protocol:
as §3, §2

Assay [17] has as its system C57BL/6 mice. Nature of the assay: Locomotion in the open field test (OFT). To be noted: 3 and 10 mg/kg i.p. It counts as in vivo. How it is done:
as §3, §2

[18] abbreviates: HitHunter CHO hCB2R cells, 90 min, 95% CI in brackets, read-out: hCB2R EC50, inhibition of FSK-stimulated cAMP accumulation.
Where [19] appears, read: HitHunter CHO hCB1R cells, 90 min, 95% CI in brackets, read-out: hCB1R EC50, inhibition of FSK-stimulated cAMP accumulation.
Where [20] appears, read: PathHunter CHO hCB1R cells, 90 min, 95% CI in brackets, read-out: hCB1R EC50, recruitment of βarrestin2.
The mark [21] stands for this setting: dose range 0.1–10 mg/kg i.p., 15 min post-injection.

Values joined by “and” are separate entries in the source; they are usually repeats but may differ in a detail not shown here. Equal entries are not always repeated. “Also recorded” adds a separate entry of the source. Where two headings read alike, the source gives them in different places. Marks after values point to notes of the source that are not given here.

T2 sequence (P21554 whole entry): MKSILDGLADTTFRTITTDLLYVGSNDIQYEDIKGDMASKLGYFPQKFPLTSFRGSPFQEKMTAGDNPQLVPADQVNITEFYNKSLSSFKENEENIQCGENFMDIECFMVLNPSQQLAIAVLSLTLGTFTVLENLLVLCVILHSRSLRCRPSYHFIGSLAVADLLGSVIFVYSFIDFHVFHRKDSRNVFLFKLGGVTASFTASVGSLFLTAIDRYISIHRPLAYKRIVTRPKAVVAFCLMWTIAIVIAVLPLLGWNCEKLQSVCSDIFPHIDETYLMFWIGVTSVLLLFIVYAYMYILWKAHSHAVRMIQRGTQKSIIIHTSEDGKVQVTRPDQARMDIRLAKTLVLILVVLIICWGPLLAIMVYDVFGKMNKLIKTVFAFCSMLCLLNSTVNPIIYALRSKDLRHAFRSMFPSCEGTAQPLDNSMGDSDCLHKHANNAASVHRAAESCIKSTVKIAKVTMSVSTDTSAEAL
T1 sequence (P34972 whole entry): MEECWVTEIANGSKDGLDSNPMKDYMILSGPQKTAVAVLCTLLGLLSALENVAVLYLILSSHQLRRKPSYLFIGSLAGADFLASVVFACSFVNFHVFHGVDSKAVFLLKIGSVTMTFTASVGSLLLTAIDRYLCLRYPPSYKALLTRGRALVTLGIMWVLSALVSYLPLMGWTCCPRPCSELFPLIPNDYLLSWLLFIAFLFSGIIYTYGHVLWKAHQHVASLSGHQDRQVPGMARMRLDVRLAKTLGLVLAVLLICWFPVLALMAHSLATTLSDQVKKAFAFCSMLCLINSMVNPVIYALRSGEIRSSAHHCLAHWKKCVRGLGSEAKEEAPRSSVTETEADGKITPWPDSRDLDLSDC

By Emax is commonly meant the maximal effect, on the per cent scale that the assay sets. What is called EC50 is the concentration needed to bring the measured effect to its halfway point. Consider `CCCCCc1cc(O)c(C/C=C(\C)CCC=C(C)C)c(O)c1` [CBG, cannabigerol], for which, in assay [1], the “ligand bias at hCB2R (∆∆LogR), in words” value is on record as “bias for inhibition of cAMP relative to βarrestin2”. The Emax in assay [2] was 22 ± 1.2%; in [6], 0.41 ± 0.45%; in [7], 39 ± 11%; in [9], 68 ± 2.4%. For the same molecule, the Ki in [3] was over 1000 nM; in assay [11], 1300 nM; in [12] it was 500 nM and 490 nM; in [13], over 1000 nM. The “hCB2R Emin” value in [4] stood at 32 ± 8.1%. Further, the “extent of [^3H]CP55,940 displacement from hCB2R, in words” value (“extent … from hCB2R, in words” for short) in assay [4] was “displaced [^3H]CP55,940 from hCB2R to an extent that was not different from CP55,940”. In [5] (3 mg/kg i.p., 15 min post-injection), the “anti-nociceptive effect (tail flick latency), in words” value (from here on “anti-nociceptive effect”) is listed as “weak anti-nociceptive effect; also recorded: small but statistically significant anti-nociceptive effect”. Further, the “agonist activity in hCB2R cAMP inhibition, in words” value in assay [7] is recorded as “weak partial agonist”. Moreover, the results for the concentration for a half-maximal effect (EC50) in assay [7] (setting [18]) and in [9] (setting [19]) were 130 nM and 120 nM, respectively. Also, the “ligand bias at hCB1R (∆∆LogR), in words” value in [8] is listed as “bias for the inhibition of cAMP relative to βarrestin2”. In assay [9], the “agonist activity in hCB1R cAMP inhibition, in words” value is “weak partial agonist”. In addition, the “time in the central quadrant of the OFT (modelled anxiolytic effect), in words” value (from here on “time in the central quadrant of the OFT”) in assay [10] (10 mg/kg i.p.) is given as “anxiolytic-like effect”. Moreover, the “extent of [^3H]CP55,940 displacement from hCB1R, in words” value (from here on “extent … from hCB1R, in words”) in assay [11] is “weakly displaced [^3H]CP55,940 at concentrations ≥ 1 µM”. In addition, the “hCB1R Emin” value in assay [11] is on record as 49 ± 7.2*^ %.
For `C=C(C)[C@@H]1CCC(C)=C[C@H]1c1c(O)cc(CCC)cc1O` [CBDV, cannabidivarin], the “ligand bias at hCB2R (∆∆LogR), in words” value in assay [1] is on record as “bias for inhibition of cAMP relative to βarrestin2”. Also, the “activity in hCB2R βarrestin2 recruitment, in words” value in assay [2] was “demonstrable efficacy at hCB2R in the βarrestin2 recruitment assay, but with very low potency”. Moreover, the Emax in assay [2] amounted to 64 ± 13%; in [6] it was 0.96 ± 0.75%; in [7] it was 51 ± 12%; in assay [9], 68 ± 5.7%. Also, the EC50 in [2] (PathHunter CHO hCB2R cells, 90 min, 95% CI in brackets, read-out: hCB2R EC50, recruitment of βarrestin2) was over 10000 nM; in assay [6] (setting [20]) it was over 10000 nM; in assay [7] (setting [18]), 5 nM; in [9] (setting [19]), over 10000 nM. The “hCB2R Emin” value in [4] was 22 ± 9.3 %. For the same molecule, in assay [4], the “extent … from hCB2R, in words” value was “displaced [^3H]CP55,940 from hCB2R to an extent that was not different from CP55,940”. For the same molecule, the values for the Ki in assay [11] and in assay [12] were over 10000 nM and 140 nM, respectively. For the same molecule, in assay [11], the “extent … from hCB1R, in words” value was “weakly displaced [^3H]CP55,940 at concentrations ≥ 1 µM”. Further, the “hCB1R Emin” value in assay [11] is 96 ± 5.1*^ %. For the same molecule, the “in vivo responses in the tetrad assays, in words” value in assay [14] (doses tested 0.1–10 mg/kg i.p.) is “no significant in vivo responses”.
For `CCCc1cc(O)c2c(c1)OC(C)(C)[C@@H]1CCC(C)=C[C@@H]21` [THCV, ∆^9-tetrahydrocannabivarin], in assay [2], the EC50 is over 10000 nM; the “activity in hCB2R βarrestin2 recruitment, in words” value was “demonstrable efficacy at hCB2R in the βarrestin2 recruitment assay, but with very low potency; also recorded: agonist”; the maximal effect (Emax) is 50 ± 6.8%. Also, in [15], the “cataleptic response, % of maximum possible effect (MPE)” value was found to be 39%. In addition, in assay [4], the “hCB2R Emin” value is listed as 27 ± 9.5% and the “extent … from hCB2R, in words” value was “displaced [^3H]CP55,940 from hCB2R to an extent that was not different from CP55,940”. Moreover, the “anti-nociceptive effect” value in [5] (3 and 10 mg/kg i.p.) is “anti-nociceptive”. Further, in assay [5] (setting [21]), the “anti-nociceptive effect” value is “dose-dependent increase in anti-nociceptive effects”. Moreover, the maximal response (Emax) in assay [6] turned out to be 0.05 ± 2.1%. In assay [6] (setting [20]), the EC50 is over 10000 nM. Further, in assay [7], it took 280 nM to reach a half-maximal effect (EC50); the “agonist activity in hCB2R cAMP inhibition, in words” value is listed as “agonist”; the Emax was found to be 79 ± 1.3%. In assay [9], the “agonist activity in hCB1R cAMP inhibition, in words” value is recorded as “weak partial agonist response” and the Emax was 59 ± 3.9%. The EC50 in assay [9] (setting [19]) was determined as 260 nM. Besides, the “time in the central quadrant of the OFT” value in assay [10] (3 and 10 mg/kg i.p.) was “anxiolytic”. For the same molecule, in assay [16], the “effect on body temperature, in words” value was “decreased body temperature; also recorded: hypothermic”. In assay [11], the Ki is 22 nM; the “extent … from hCB1R, in words” value was “partially displaced”; the “hCB1R Emin” value is 54 ± 4.1*^ %. For the same molecule, the “total locomotion in the OFT, in words” value in [17] is on record as “hypolocomotive”. The Ki in assay [12] is 47 nM.
Consider `CCCCCc1cc2c(c(O)c1C(=O)O)[C@@H]1C=C(C)CC[C@H]1C(C)(C)O2` [∆^9-THCa, ∆^9-tetrahydrocannabinolic acid], for which, in assay [2], the EC50 was over 10000 nM and the Emax amounted to 15 ± 2.5%. In assay [4], the “hCB2R Emin” value was 49 ± 7.2*^ %. For the same molecule, the “anti-nociceptive effect” value in [5] (3 and 10 mg/kg i.p.) is listed as “anti-nociceptive”. Also, the “anti-nociceptive effect” value in assay [5] (setting [21]) is given as “dose-dependent increase in anti-nociceptive effects”. Moreover, in assay [6], the EC50 is over 10000 nM and the Emax was determined as 4.1 ± 1.5%. For the same molecule, in [7], a half-maximal response (EC50) required 1800 nM; the “agonist activity in hCB2R cAMP inhibition, in words” value was “weakly potent agonist”; the maximal response (Emax) came to 95 ± 1.5%. Also, in assay [8], the “ligand bias at hCB1R (∆∆LogR), in words” value is recorded as “bias for the inhibition of cAMP relative to βarrestin2”. Also, in assay [9], the EC50 is over 10000 nM; the “agonist activity in hCB1R cAMP inhibition, in words” value was “weak partial agonist”; the maximal response (Emax) came out at 35 ± 11%. Further, the “time in the central quadrant of the OFT” value in [10] (10 mg/kg i.p.) was “anxiolytic-like effects”. Further, in assay [11], the Ki turned out to be 620 nM; the “extent … from hCB1R, in words” value was “partially displaced”; the “hCB1R Emin” value is given as 67 ± 11*^ %. For the same molecule, the “total locomotion in the OFT, in words” value in assay [17] is “hypolocomotive effects”. Also, the Ki in [12] is 1.3 nM.
As for `C=C(C)[C@@H]1CCC(C)=C[C@H]1c1c(O)cc(CCCCC)cc1O` [CBD, cannabidiol, reference compound], the “activity in hCB2R βarrestin2 recruitment, in words” value in assay [2] was “modest agonist activity”. In addition, the maximal response (Emax) came out at 23 ± 2.8% in assay [2], 1 ± 1.6% in assay [6], 61 ± 2.3% in [7] and 26 ± 1.6% in assay [9]. Further, the “hCB2R Emin” value in [4] is 54 ± 9.3*^ %. In addition, in assay [11], the “extent … from hCB1R, in words” value is “weakly displaced [^3H]CP55,940 at concentrations ≥ 1 µM”. Further, in assay [14] (between 1 and 10 mg/kg), the “effects in the tetrad of assays, in words” value was “no effects”.
